# Patent US6803224B2, “Regulated expression of cloned genes using a cascade genetic circuit” (priority 2000, dated 2004)
# Read-outs that look alike come from different tables or passages of the source.
# Tests used:
# xylS2/Pm = assay: β-galactosidase induction, simple circuit xylS2/Pm::lacZ in chromosome (E. coli CC118FH26); format: cell-based; details: E. coli CC118FH26, 5 hours at 30° C.
# Source text: (§1) This example illustrates how the effector molecules NahR and XylS2 can synergistically amplify gene expression when integrated properly into a cascade genetic circuit.
# nahR/Psal = format: cell-based, E. coli; details: for Induction ratio of β-galactosidase activity: nahR/Psal, E. coli CC118RSL9, 5 hours at 30° C.
# Source text: as §1
# nahR/Psal::xylS2/Pm [1] = format: cell-based, E. coli
# Source text: as §1
# [2] = tested on: nahR/Psal::xylS2/Pm::trp'::'lacZ; details: Salicylate 2 mM, 30° C., 5 hours, depending on the transconjugant
# Pm::lacZ (pTSPm-lacZ) = details: CC118λpir pTSPm-lacZ, salicylate 2 mM, 30° C., 5 hours
# [3] = tested on: xylS2/Pm::lacZ (pCNB2-lacZ); details: CC118λpir pCNB2-lacZ, salicylate 2 mM, 5 hours
# [4] = tested on: nahR/Psal::lacZ (pCNB4-lacZ); details: CC118λpir pCNB4-lacZ, salicylate 2 mM, 5 hours
# nahR/Psal::xylS2/Pm [5] = details: CC4S2PMT97, salicylate 2 mM, 30° C., 5 hours
# Description: The pool of bacteria growing on streptomycin 25 mg/l and rifampicin 50 mg/l was used as recipient in a mating with donor strain E. coli S17-1(λpir) (pCNB4-S2). To select transconjugants, the mating product was plated onto LB plates with rifampicin, streptomycin and kanamycin (25 mg/l). […] Cultures from colonies of the transconjugant were grown overnight in LB medium (yeast extract 5 g/l, tryptone 10 g/l, 5 g/l NaCl) at 37° C. by shaking. Cultures were diluted 1:100 in fresh media without antibiotic selection and incubated for 2 hours at 37° C.
# [6] = tested on: xylS2/Pm::nahR and Psal::trp'::'lacZ; details: E. coli 2NRSL7, salicylate 2 mM
# [7] = tested on: nahR4/Psal::xylS/Pm::trp'::'lacZ
SMILES,Induction ratio of β-galactosidase activity (xylS2/Pm),Induction ratio of β-galactosidase activity (nahR/Psal),also measured
COc1ccc(O)c(C(=O)O)c1 [5-Metoxi-salicylate],46,3,–
Cc1cccc(C(=O)O)c1O [3-Methyl-salicylate],46,17,–
Cc1ccc(O)c(C(=O)O)c1 [5-Methyl-salicylate],19,30,–
"O=C(O)c1cc(Cl)cc(Cl)c1O [3,5-Dichloro-salicylate]",1,18,–
CC(=O)Oc1ccccc1C(=O)O [2-Acetyl salicylate],10,40,–
O=C(O)c1ccccc1O [Salicylate],13,24,"induction ratio as part of maximal activity (nahR/Psal::xylS2/Pm [1]; 0.5 mM of salicylate): 90%; β-gal activity (nahR/Psal::xylS2/Pm [1]; CC4S2PMT32, salicylate 2 mM, 30° C., 5 hours): 30383 Miller Units; time at which accumulation of β-galactosidase reached maximum value (nahR/Psal::xylS2/Pm [1]; Salicylate 2 mM added at OD600=0.2): 5 h; β-galactosidase production, share of total protein (nahR/Psal; the simple system, SDS-PAGE and densitometry): less than 0.6%; gene expression capacity [2]: 150 to 400 times; β-galactosidase production when induced [2]: 25,000-50,000 MU; β-gal activity (Pm::lacZ (pTSPm-lacZ)): 1358 Miller Units; β-gal activity ([3]; 30° C.): 67002 Miller Units; % β-gal/total proteins ([3]; SDS-PAGE densitometry): 13%; β-gal activity ([4]; 30° C.): 17952 Miller Units; % β-gal/total proteins ([4]; SDS-PAGE densitometry): 3.9%; β-gal activity (nahR/Psal::xylS2/Pm [5]): 39143 Miller Units; capacity of the reverse-coupled system (induction) [6]: 24 fold; XylS accumulation (western blot) ([7]; P. putida cascade cultures induced with salicylate): Increased accumulation of XylS; β-galactosidase produced in the presence of salicylate relative to benzoate ([7]; P. putida cascade transconjugants, 2 mM): about 4 fold"
COc1ccccc1C(=O)O [2-Metoxi-benzoate],10,33,–
Nc1ccccc1C(=O)O [Antranilate],11,22,–
O=C(O)c1cc(Cl)ccc1O [5-Chloro-salicylate],3,32,–
Cc1cccc(C(=O)O)c1 [3-Methyl-benzoate],63,11,–
Cc1ccc(C(=O)O)c(O)c1 [4-Methyl-salicylate],7,21,–
O=C(O)c1ccc(Cl)cc1O [4-Chloro-salicylate],1,33,–
